For data set [1], the system named is clinical Stage 2 and 3 rectal cancers. To be noted: cited from earlier work; for patients achieving tumor (T stage) downstaging: pre-operative chemoradiation, continuous infusion 5-FU or twice daily capecitabine.
For data set [2], the system named is cells. To be noted: compared to cells without the defective DNA; cited from earlier work.
Data set [3] relates to proliferating normal tissues (bone marrow and intestine). To be noted: daily oral IPdR compared to continuous infusion IUdR; cited from earlier work.
For data set [4] the following is noted: multiple daily oral IPdR dosing, pre-clinical; cited from earlier work.
Data set [5] has as its system subcutaneous xenografts of human glioblastoma cell lines and human colorectal cancer cell lines. To be noted: daily oral IPdR compared to continuous infusion IUdR; cited from earlier work.
For data set [6], the system named is locally advanced rectal cancer. Nature of the data set: Concomitant daily oral capecitabine and oral IPdR during radiation therapy (proposed). The data set is classed as in vivo, human. To be noted: oral IPdR with oral capecitabine during radiation therapy; expected ("may"). On the procedure:
This may, in turn, correlate with increased survival and improved quality of life for these patients. By establishing the MTD and documenting the plasma PK data for once daily oral administration of IPdR combined with fractionated radiation therapy (37.5 Gy @ 2.5 Gy fractions over 3 weeks), the daily (or twice daily) IPdR dose may be reduced by two dose levels, while using standard doses of capecitabine (750 mg/M^2) and radiation therapy (50.4-54 Gy @ 1.8 Gy fractions).

For data set [7], the system named is High Grade Sarcomas. Nature of the data set: IUdR as radiosensitizer with RT in patients with high grade sarcomas, vs historical controls. It counts as in vivo, human.

Several values for one entry are separate records, joined by “and”; a condition that tells them apart may be missing. Equal values may be shown once. A value given as a limit tells only on which side of the number the result lay.

Consider `O=c1[nH]cc(F)c(=O)[nH]1` [5-FU, 5-fluorouracil], for which, in data set [1], the “patients achieving tumor (T stage) downstaging” value is “about 45%”.

In the case of `O=c1[nH]c(=O)n([C@H]2C[C@H](O)[C@@H](CO)O2)cc1Br` [BUdR, 5-bromo-2′-deoxyuridine], in data set [2], the “cells more susceptible to the lethal effects of radiation therapy” value was “two to three fold”.

For the molecule `O=c1ncc(I)cn1[C@H]1C[C@H](O)[C@@H](CO)O1` [IPdR, 5-iodo-2-pyrimidinone-2′-deoxyribose], the “decreased % IUdR-DNA incorporation into proliferating normal tissues (bone marrow and intestine / gut epithelium)” value in data set [3] was 2-3 fold and 2 fold. The “acute and subacute normal tissue toxicities” value in data set [4] was “without significant dose-limiting acute and subacute normal tissue toxicities”. In addition, the “increased % IUdR-DNA incorporation into tumor tissues” value in data set [5] is given as 2-3 fold. Moreover, in data set [6], the pCR rate was over 30%.

Turning to `O=c1[nH]c(=O)n([C@H]2C[C@H](O)[C@@H](CO)O2)cc1I` [IUdR, 5-iodo-2′-deoxyuridine], the “Median Survival (Months)” value in data set [7] (RT + IUdR + Surgery, High Grade Sarcomas (Resectable), RT + Surgery 25%) stood at 45%; in data set [7] (RT + IUdR, High Grade Sarcomas (Un-Resectable), RT alone <10%), 60%. For the same molecule, the “cells more susceptible to the lethal effects of radiation therapy” value in data set [2] is recorded as “two to three fold”.

As to `CCCCCOC(=O)Nc1nc(=O)n([C@@H]2O[C@H](C)[C@@H](O)[C@H]2O)cc1F` [capecitabine], the “pCR, local recurrence, and overall survival, comparison with infusional 5-FU” value in data set [1] (capecitabine administered twice daily) is on record as “equivalent to infusional 5-FU”. Further, the “patients achieving tumor (T stage) downstaging” value in data set [1] is recorded as “about 45%”.
